Experimental findings from patent US20190240297A1, “TREATMENT OF INFLAMMATORY BOWEL DISEASE” (UNIVERSITÉ LAVAL, priority 2016, published 2019) are described below.

Series [1] relates to DSS-induced colitis. As to the kind of experiment: DSS-induced acute colitis, disease activity index (DAI) after intrarectal injection. The series is classed as in vivo, mouse. As for the experimental part: (§1) All mice were treated or not (control mice) with 3% (w/v) DSS (molecular weight: 42 kDa) added to the drinking water for 7 days. Disease activity index (DAI) was evaluated daily by scoring percent of weight loss, intestinal bleeding (no blood, presence of blood), and stool consistency (normal stool, loose stool, or diarrhea) as previously described (Berberat P, 2005). For intrarectal injection mice were anesthetized and stool that may be present in distal colon was removed with pressure by fingertips to the posterior end of the animal. A 5F infant feeding tube catheter was inserted 4 cm (measured from the midway point between the 2 catheter side ports) into the colon. At this point, 100 μL of P2Y6 antagonist (MRS 2578 CAS number 711019-86-2, 10 μM), apyrase (4 Units/mice) or their vehicles DMSO or PBS respectively was administered slowly. Following the injection of the solution, animals were positioned head-down for 90 sec to avoid loss of the injected solution. Mice were euthanized 8 hr after the last intrarectal injection, tissue and plasma were isolated for experimental outcomes.

Series [2] relates to DSS-induced colitis. As to the kind of experiment: In vivo intestinal permeability assay (FITC-dextran flux from intestine to plasma) in DSS-treated mice. More on the design: species or system mouse. As for the experimental part:
as §1, with “For” for “All mice were treated or not (control mice) with 3% (w/v) DSS (molecular weight: 42 kDa) added to the drinking water for 7 days. Disease activity index (DAI) was evaluated daily by scoring percent of weight loss, intestinal bleeding (no blood, presence of blood), and stool consistency (normal stool, loose stool, or diarrhea) as previously described (Berberat P, 2005). For”
Intestinal permeability was assessed with fluorescein-labeled dextran (FITC-dextran) as described previously with some modification (Ashleigh Hansen, 2013). All mice were administrated by oral gavage with FITC-dextran (60 mg/[…] of mouse) 4 h after the intrarectal injection of MRS 2578, apyrase or vehicle (DMSO or PBS). Another 4 hours later, mice were euthanized and whole blood was obtained by cardiac puncture. Plasma was isolated and the movement of FITC-flux from colonic lumen into the plasma was measured by fluorometry at 488 nm. Data are expressed as total quantity of dextran-FITC in 100 μl of plasma.

A further series concerns IEC monolayers. As to the kind of experiment: In vitro intestinal permeability assay (FITC-dextran) on DSS-treated IEC monolayers. The following applies: WT and Entpd8-/- IEC, DSS 3% 24 hours; 10 μM added 6 hours after DSS for last 18 hours (FIG. 14A). Format: cell-based, mouse. From the text:
(§2) Human colon pieces were recuperated and washed several times with D-PBS containing Fetal Bovine Serum (FBS), antibiotics, antifungal and gentamycin until the solution is clear. Epithelial unit containing stem cells (crypts) were isolated from human samples (as prepared above) or from the intestine of 10-12 weeks old mice by dissection and dissociated with collagenase type I (collagenase XI, DTT and dispase for human). Briefly, the longitudinal muscle layer from the colons were excised, washed with ice-cold Mg^2+ and Ca^2+ free Salt Solution (PBS) and then digested with 75 U/mL collagenase type I or collagenase XI. The digestion was stopped with Dulbecco's Modified Eagles Medium (DMEM/F12) containing 10% v/v foetal bovine serum (FBS). L-glutamine, Hepes. […]
In other experiments, murine IEC were grown on permeable supports, stimulated on the apical chamber with DSS 3% for 6 hours then the P2Y6 antagonist MRS 2578 (10 μM) was added for the following 18 hours. The supernatant from basolateral chamber was collected and KC secretion was evaluated by Elisa.
Intestinal permeability was assessed with fluorescein-labeled dextran (FITC-dextran) as described previously with some modification (Ashleigh Hansen 2013). […] 4 hours later, samples were taken from the bottom chambers and fluorescence intensity in the samples was measured. Data were expressed as total quantity of dextran-FITC in supernatant.

The test system of a further series is IEC. As to the kind of experiment: KC secretion by DSS-treated IEC (ELISA of basolateral supernatant). Format: cell-based, mouse. The note with it: WT and Entpd8-/- IEC, DSS 3% 24 hours; 10 μM added 6 hours after DSS for last 18 hours (FIG. 14B).
Text: as §2, with “Hepes. N-2 supplement, B-27 supplement and antibiotics. The digestion mixture was filtered with 70 μm filter and the effluent was centrifuged twice at 50×g for 5 min at 4° C.” for “Hepes.”
In other experiments, murine IEC were grown on permeable supports, stimulated on the apical chamber with DSS 3% for 6 hours then the P2Y6 antagonist MRS 2578 (10 μM) was added for the following 18 hours. The supernatant from basolateral chamber was collected and KC secretion was evaluated by Elisa. […]
For orientation: ELISA stands for enzyme-linked immunosorbent assay.

Series [3] has as its target T1, P2Y6 receptor (Mus musculus, UniProt Q9ERK9).
T1 construct: endogenous in cells; host or cells: primary differentiated intestinal epithelial cells from colon crypts of WT and Entpd8-/- mice
The series can be described thus: UDP stimulation of murine differentiated IEC, KC expression by qPCR. The following applies: 100 μM for 5 hours (FIG. 13A). Format: cell-based.
Text: as §2, with “Hepes. N-2 supplement, B-27 supplement and antibiotics. The digestion mixture was filtered with 70 μm filter and the effluent was centrifuged twice at 50×g for 5 min at 4° C.” for “Hepes.”
(§3) Murine and human differentiated IEC were grown on plates and stimulated with UDP (100 μM) for 5 hours then the expression of KC (for mouse) and CXCL8 (for human) were evaluated by qPCR.
(§4) Genomic DNA was extracted from the tail of WT and Entpd8^−/− mice using Direct PCR Lysis Reagent to perform PCR using specific primers for NTPDase8 gene and neomycin as mentioned above. […] Primer sequences for cytokine analysed were purchased from Qiagen.

The target in series [4] is T2, P2Y6 receptor (Homo sapiens, UniProt Q15077).
T2 construct: endogenous in cells; host or cells: primary differentiated intestinal epithelial cells from human colon crypts (1 patient)
T2 sequence (Q15077 whole entry): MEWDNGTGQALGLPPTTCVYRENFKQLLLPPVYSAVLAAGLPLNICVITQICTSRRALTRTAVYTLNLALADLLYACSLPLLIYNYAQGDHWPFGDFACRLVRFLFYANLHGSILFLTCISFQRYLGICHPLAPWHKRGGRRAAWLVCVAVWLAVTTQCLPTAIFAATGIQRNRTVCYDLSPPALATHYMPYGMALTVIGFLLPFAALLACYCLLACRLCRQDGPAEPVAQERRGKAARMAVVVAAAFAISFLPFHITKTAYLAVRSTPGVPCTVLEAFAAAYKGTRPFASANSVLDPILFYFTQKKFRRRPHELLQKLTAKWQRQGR
The series can be described thus: UDP stimulation of human differentiated IEC, CXCL8 expression by qPCR. Format: cell-based. The following applies: 100 μM for 5 hours, 1 patient (FIG. 13B).
Text: as §2, with “Hepes. N-2 supplement, B-27 supplement and antibiotics. The digestion mixture was filtered with 70 μm filter and the effluent was centrifuged twice at 50×g for 5 min at 4° C.” for “Hepes.”
as §3, §4

T1 sequence (Q9ERK9 whole entry): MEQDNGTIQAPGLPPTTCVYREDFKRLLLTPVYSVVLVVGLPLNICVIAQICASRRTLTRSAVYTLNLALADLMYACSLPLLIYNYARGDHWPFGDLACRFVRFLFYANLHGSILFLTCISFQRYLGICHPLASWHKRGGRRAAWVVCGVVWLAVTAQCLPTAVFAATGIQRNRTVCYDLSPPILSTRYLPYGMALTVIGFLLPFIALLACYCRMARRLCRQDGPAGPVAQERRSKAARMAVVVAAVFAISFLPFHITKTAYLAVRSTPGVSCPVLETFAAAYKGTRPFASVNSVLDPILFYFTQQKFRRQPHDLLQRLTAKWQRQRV

`S=C=Nc1cccc(NC(=S)NCCCCNC(=S)Nc2cccc(N=C=S)c2)c1` [MRS 2578]: the “Disease activity index (DAI) / inflammation” value with DSS-induced colitis [1] (Entpd8-/- mice, 3% DSS 7 days, 10 μM intrarectally daily day 2 to day 7, vs DSS alone (FIG. 10A)) is “reduced inflammation and the DAI”; in the series on DSS-induced colitis [1] (WT mice, 3% DSS 7 days, 10 μM intrarectally daily day 2 to day 7, vs DSS alone (FIG. 10C)) it was “reduced inflammation and the DAI”. Moreover, the “Intestinal permeability, FITC-dextran flux from intestine to plasma” value in the series on DSS-induced colitis [2] (Entpd8-/- and WT mice, day 7, 10 μM intrarectally day 2 to day 7 (FIG. 10B, D)) was “significantly ameliorated the permeability”. Further, in the series on IEC monolayers, the “Epithelial permeability (FITC-dextran in basolateral chamber)” value is “decreasing epithelial permeability”. Also, in the series with IEC, the “KC (chemokine) secretion” value is “decreasing epithelial permeability and chemokines secretion”.

As for `O=c1ccn([C@@H]2O[C@H](COP(=O)(O)OP(=O)(O)O)[C@@H](O)[C@H]2O)c(=O)[nH]1` [UDP], the “KC expression (mRNA)” value at P2Y6 receptor [3] is on record as “significant increase”. For the same compound, the “CXCL8 expression (mRNA)” value on P2Y6 receptor [4] is given as “significant increase”.

Turning to apyrase, the “Protection from colitis as determined by DAI” value in the series with DSS-induced colitis [1] (WT mice, DSS, 4 U/mice intrarectally daily day 2 to day 7, vs PBS (FIG. 11A)) is listed as “fully protected”. For the same compound, the “Disease activity index (DAI) / inflammation” value in the series on DSS-induced colitis [1] (WT mice, DSS, 4 U/mice intrarectally in late phase, day 5 to day 7, vs PBS (FIG. 11C)) is “reduced inflammation”. Moreover, the “Protection from colitis as determined by permeability measurements” value with DSS-induced colitis [2] (WT mice, 4 U/mice intrarectally daily day 2 to day 7, vs PBS (FIG. 11B)) is recorded as “fully protected”.
